The values below are quoted from earlier work in US11530413B2, “Compositions and methods to treat cancer” (NOVARTIS AG, priority 2017, dated 2022).

Molecules are shown by their SMILES. Like-named read-outs stand apart in the source and are kept apart here.

What is called IC50 is the concentration that inhibits the measured activity by half. A word on the Ki: it is a measure of affinity in units of concentration, obtained from inhibition or displacement.

One data set deals with GATA3. Conditions: target of the IC50 not stated; named as GATA3 inhibitor; read-out: IC50 of the steroid.
The target in data set [1] is T1, CBFB (Homo sapiens, UniProt Q13951).
T1 sequence (Q13951 1-182): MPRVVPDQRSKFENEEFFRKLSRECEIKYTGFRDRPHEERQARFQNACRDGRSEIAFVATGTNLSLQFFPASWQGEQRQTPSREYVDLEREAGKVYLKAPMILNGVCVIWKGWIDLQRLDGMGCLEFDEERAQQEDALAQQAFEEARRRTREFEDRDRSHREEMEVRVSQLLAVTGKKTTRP
Conditions: read-out: IC50 as CBFB inhibitor.

Data set [2] deals with T2, CBFbeta association with Runx1 (Homo sapiens, UniProt Q13951).
T2 sequence (Q13951 1-141 limits assumed): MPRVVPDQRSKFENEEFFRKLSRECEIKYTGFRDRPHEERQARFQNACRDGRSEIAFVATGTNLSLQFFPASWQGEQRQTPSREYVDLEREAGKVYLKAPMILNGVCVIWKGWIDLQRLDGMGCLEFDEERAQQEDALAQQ

The next data set concerns the target CDK2. The note with it: read-out: Ki as CDK inhibitor.
A further data set relates to FLI1. Conditions: read-out: IC50 as FLI1 inhibitor.
In a further data set the test system is CDK. The note with it: read-out: IC50 as multi-CDK inhibitor.
The target of data set [3] is T1, CBFB. The note with it: read-out: IC50 as CBFB inhibitor. This is another data set of the same source.
The target of a further data set is T3, MITF (Homo sapiens, UniProt O75030).
T3 sequence (O75030 1-526): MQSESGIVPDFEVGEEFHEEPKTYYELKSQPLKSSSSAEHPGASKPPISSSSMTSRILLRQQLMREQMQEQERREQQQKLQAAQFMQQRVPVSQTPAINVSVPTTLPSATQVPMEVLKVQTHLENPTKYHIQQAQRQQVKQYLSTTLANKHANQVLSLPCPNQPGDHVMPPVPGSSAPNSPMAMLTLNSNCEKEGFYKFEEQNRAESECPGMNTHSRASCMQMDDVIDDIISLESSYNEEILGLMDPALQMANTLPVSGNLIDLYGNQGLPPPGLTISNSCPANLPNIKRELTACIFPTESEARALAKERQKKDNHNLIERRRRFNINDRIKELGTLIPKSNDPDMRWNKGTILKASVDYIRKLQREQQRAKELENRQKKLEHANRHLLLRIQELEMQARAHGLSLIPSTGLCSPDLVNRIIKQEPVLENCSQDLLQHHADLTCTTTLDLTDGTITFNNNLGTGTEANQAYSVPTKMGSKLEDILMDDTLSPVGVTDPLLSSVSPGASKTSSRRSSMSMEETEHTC
Conditions: read-out: IC50 as MITF inhibitor.

`C[C@@H]1C[C@H]2[C@@H]3CCC4=CC(=O)C=C[C@]4(C)[C@@]3(F)[C@@H](O)C[C@]2(C)[C@@]1(O)C(=O)CO` [Dexamethasone, (8S,9R,10S,11S,13S,14S,16R,17R)-9-Fluoro-11,17-dihydroxy-17-(2-hydroxyacetyl)-10,13,16-trimethyl-6,7,8,9,10,11,12,13,14,15,16,17-dodecahydro-3H-cyclopenta[a]phenanthren-3-one]: in the data set on GATA3, the IC50 is 0.01 µM. As for `COc1cccnc1-c1nc2cc(OC(F)(F)F)ccc2[nH]1` [AI-10-104], on CBFB [1], the IC50 was 1.25 µM.

As to `CCc1sc(N)nc1-c1ccc(OC)cc1` [CBFB inhibitor, 5-ethyl-4-(4-methoxyphenyl)-2-thiazolamine], the “IC50, binds CBFbeta and prevents its association with Runx1” value in data set [2] is 3.2 µM. As to `CCNCc1cncc(-c2cccc3[nH]nc(-c4nc5c(F)cc(F)cc5[nH]4)c23)c1C` [AG-024322, N-((5-(3-(4,6-difluoro-1H-benzo[d]imidazol-2-yl)-1H-indazol-4-yl)-4-methylpyridin-3-yl)methyl)ethanamine], the Ki at CDK2 was 0.001 to 0.003 µM. Turning to `COc1ccc(C(=O)C[C@]2(O)C(=O)Nc3c(Cl)ccc(Cl)c32)cc1` [TK-216, 4,7-dichloro-1,3-dihydro-3-hydroxy-3-[2-(4-methoxyphenyl)-2-oxoethyl]-(3R)-2H-indol-2-one], the IC50 in the data set on FLI1 was 0.449 µM. For the molecule `O=C(NC1CCNCC1)c1n[nH]cc1NC(=O)c1c(Cl)cccc1Cl` [AT7519, 4-[(2,6-Dichlorobenzoyl)amino]-N-(4-piperidinyl)-1H-pyrazole-3-carboxamide], the IC50 in the data set on CDK was 0.01 to 0.21 µM. On to `O=C1CN=C(c2ccc[nH]2)c2cc(Cl)ccc2N1` [Ro5-3335, 7-Chloro-1,3-dihydro-5-(1H-pyrrol-2-yl)-2H-1,4-benzodiazepin-2-one], for which the IC50 at CBFB [3] is 1.1 µM. As for `NS(=O)(=O)c1ccc(NC2=CC(=O)c3ccccc3C2=O)cc1` [ML329, 4-((1,4-dioxo-1,4-dihydronaphthalen-2-yl)amino)benzenesulfonamide], at MITF, the IC50 was 1.2 µM. Turning to `CN1CC[C@H](c2c(O)cc(O)c3c(=O)cc(-c4ccccc4Cl)oc23)[C@H](O)C1` [Flavopiridol, 2-(2-chlorophenyl)-5,7-dihydroxy-8-[(3S,4R)-3-hydroxy-1-methyl-4-piperidinyl]-4-chromenone], the IC50 in the data set with CDK was ~0.04 µM.
